Numbered stars: 1 amine (or outer) side, 2 acyl side, 3 side chain; on linkers, the order of the positions; unused ones are H or OH. Square brackets hold non-standard residues; d marks the D form. Side chains are listed from the residue outwards. Peptide text beside a SMILES is read from it. * marks the point of attachment. γGlu = O=C(O)[C@H](CCC(=O)[*:2])N[*:1]; Stearoyl = CCCCCCCCCCCCCCCCCC(=O)*; Palmitoyl = CCCCCCCCCCCCCCCC(=O)*; AEEA = NCCOCCOCC(=O)O; Aib = CC(C)(N)C(=O)O
How the values were obtained:
[1] = Dynamic light scattering (DLS), hydrodynamic radius as surrogate for interaction parameter kD; format: physicochemical; conditions: for Delta Rh [nm] = Rh5 − Rh1: DLS buffer system A pH 4.5; for Rh1 [nm] c= 1 mg/ml / Rh5 [nm] c = 5 mg/ml: hydrodynamic radius, DLS buffer system A pH 4.5, DLS method C, 25° C.
Protocol: For every peptide solution, the hydrodynamic radius Rh and the diffusion constant D (related via the Stokes-Einstein equation) were determined as an average over triplicates. Both parameters were determined at different concentrations (e.g., Rh1 and D1: 1 mg/ml and Rh5 and D5: 5 mg/ml) in the same buffer system. The difference of these parameters between low and high peptide concentration is a surrogate for the DLS interaction parameter kD. Rh5<Rh1 or D5>D1 correspond to kD>0 and therefore to repulsive inter-particle interactions that result in improved physical (or colloidal) stability.
DLS buffer system A) 25 mM acetate buffer pH4.5, 3 mg/mL L-Methionine, 2.7 mg/mL m-cresol, 18 mg/mL Glycerol 85%
DLS Method C: DLS measurements were performed on a DynaPro Plate Reader II (Wyatt Technology, Santa Barbara, Calif., US) and using one of the following black, low volume, and non-treated plates: polystyrene 384 assay plate with clear bottom (Corning, N.Y., US), polystyrene 96 assay plate with clear bottom (Corning, N.Y., US), cyclo olefin polymer (COP) 384 assay plate with clear bottom (Aurora, Mont., US), or polystyrene 384 assay plate with clear bottom (Greiner Bio-One, Germany). The data were processed with the Dynamics software provided by Wyatt Technology. Parameters of the particle size distribution were determined with non-negatively constrained least squares (NNLS) methods using DynaLS algorithms. Measurements were taken at 25° C. with an 830 nm laser light source at an angle of 158°.
The hydrodynamic radius radius Rh of peptide samples was determined at different peptide concentrations (1 mg/ml and 5 mg/ml) in DLS buffer system A using DLS method C as described in Methods as surrogate for the DLS interaction parameter kD.

[2] = Solubility assessment (UPLC-UV); format: physicochemical; conditions: acetate buffer pH 4.5, 2.7 mg/ml m-cresol (buffer system A), target 10 mg/ml
How it was run: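 Peptides at 10 mg/mL (purity-corrected, by UPLC/MS) in 100 mM acetate buffer pH 4.5 with 2.7 mg/ml m-Cresol, gently agitated 1 hour, then centrifuged 15 min at 2500 RCF. Supernatant, diluted 1:10, quantified by UPLC-UV peak area against a reference peptide standard curve, extinction-coefficient corrected.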

[3] = Chemical stability assessment (UPLC-UV, relative purity loss); format: physicochemical; conditions: 1 mg/ml, 25 mM acetate buffer pH 4.5 with m-cresol (buffer system A)
How it was run: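 Peptide at 1 mg/mL (purity-corrected) in 25 mM acetate pH 4.5 with methionine, m-cresol and glycerol, sterile-filtered, stored 28 days at 40° C. Purity measured by UPLC-UV as peptide peak area fraction at start and after storage; value is relative percent purity loss.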

[4] = target: T1, human GLP-1 receptor (hGLP-1 R) (Homo sapiens, UniProt P43220); assay: cAMP response (HTRF) of HEK-293 cells stably expressing human GLP-1 receptor; format: cell-based; conditions: Table 8; cAMP formation
T1 construct: expressed in transfected cells; host or cells: HEK-293
Protocol: (§1) cAMP content of cells was determined using a kit from Cisbio Corp. (cat. no. 62AM4PEJ) based on HTRF (Homogenous Time Resolved Fluorescence). For preparation, cells were split into T175 culture flasks and grown overnight to near confluency in medium (DMEM/10% FBS). Medium was then removed and cells washed with PBS lacking calcium and magnesium, followed by proteinase treatment with accutase (Sigma-Aldrich cat. no. A6964). Detached cells were washed and resuspended in assay buffer (1×HBSS; 20 mM HEPES, 0.1% BSA, 2 mM IBMX) and cellular density determined. They were then diluted to 400000 cells/ml and 25 μl-aliquots dispensed into the wells of 96-well plates. For measurement, 25 μl of test compound in assay buffer was added to the wells, followed by incubation for 30 minutes at room temperature.
(§2) Potencies of peptidic compounds at the GLP-1, glucagon and GIP receptors were determined by exposing cells expressing human glucagon receptor (hGlucagon R), human GIP receptor (hGIP-R) or human GLP-1 receptor (hGLP-1 R) to the listed compounds at increasing concentrations and measuring the formed cAMP as described in Methods.

[5] = target: T2, human glucagon receptor (hGlucagon R) (Homo sapiens, UniProt P47871); assay: cAMP response (HTRF) of HEK-293 cells stably expressing human glucagon receptor; format: cell-based; conditions: Table 8; cAMP formation
T2 construct: expressed in transfected cells; host or cells: HEK-293
Protocol: as §1, §2

[6] = Thioflavin T (ThT) assay for physical stability (fibrillation); format: physicochemical; conditions: 3 mg/ml, 100 mM acetate pH 4.5 with m-cresol, shaking at 37° C.
How it was run: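 Peptide at 3 mg/ml with 100 μM ThT in 100 mM acetate pH 4.5 with m-cresol, stressed at 37° C by cycles of 10 s shaking at 960 rpm and 50 s rest. Fluorescence read every 20 minutes, eight replicates; lag time in hours.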

T2 sequence (P47871 26-477): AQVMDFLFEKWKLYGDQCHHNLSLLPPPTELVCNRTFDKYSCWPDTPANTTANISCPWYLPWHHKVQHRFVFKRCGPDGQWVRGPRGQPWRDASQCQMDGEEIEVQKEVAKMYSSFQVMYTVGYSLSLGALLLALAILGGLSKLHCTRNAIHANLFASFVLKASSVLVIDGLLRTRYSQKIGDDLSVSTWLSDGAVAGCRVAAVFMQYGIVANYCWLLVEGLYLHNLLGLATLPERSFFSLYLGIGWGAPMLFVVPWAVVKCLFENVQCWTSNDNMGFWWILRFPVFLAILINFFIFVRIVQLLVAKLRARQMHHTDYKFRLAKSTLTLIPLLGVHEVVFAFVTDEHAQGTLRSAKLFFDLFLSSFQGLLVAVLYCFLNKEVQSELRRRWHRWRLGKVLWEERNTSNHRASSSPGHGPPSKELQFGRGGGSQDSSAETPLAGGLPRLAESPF
T1 sequence (P43220 24-463): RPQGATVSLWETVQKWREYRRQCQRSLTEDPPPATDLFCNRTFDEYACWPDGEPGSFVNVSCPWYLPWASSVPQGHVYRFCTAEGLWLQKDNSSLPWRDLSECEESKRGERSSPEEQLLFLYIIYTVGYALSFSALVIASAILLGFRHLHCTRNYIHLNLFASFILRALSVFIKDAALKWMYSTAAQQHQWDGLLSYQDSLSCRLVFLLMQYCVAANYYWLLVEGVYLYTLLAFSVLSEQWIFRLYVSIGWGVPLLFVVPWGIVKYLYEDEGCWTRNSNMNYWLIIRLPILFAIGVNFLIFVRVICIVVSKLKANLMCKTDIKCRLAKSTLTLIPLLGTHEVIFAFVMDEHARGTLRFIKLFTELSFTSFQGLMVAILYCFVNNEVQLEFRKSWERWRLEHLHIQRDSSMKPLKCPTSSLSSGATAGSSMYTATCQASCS

| Structure (SMILES) | Delta Rh [nm] = Rh5 − Rh1 [1] [nm] | Rh1 [nm] c= 1 mg/ml [1] [nm] | Rh5 [nm] c = 5 mg/ml [1] [nm] | solubility at 1 h [2] [µg/mL] | Chemical stability [relative purity loss 28 days 40° C.] (%) at pH 4.5 [3] [%] | EC50 [4] [nM] | EC50 [5] [nM] | Lag time before increase [6] [h] |
| --- | --- | --- | --- | --- | --- | --- | --- | --- |
| CCCCCCCCCCCCCCCCCC(=O)N[C@@H](CCC(=O)NCCCC[C@H](NC(=O)[C@H](CC(C)C)NC(=O)[C@H](CCCCN)NC(=O)[C@H](CO)NC(=O)[C@H](CC(C)C)NC(=O)[C@H](CC(=O)O)NC(=O)[C@H](CO)NC(=O)[C@@H](NC(=O)[C@H](Cc1ccccc1)NC(=O)[C@@H](NC(=O)CNC(=O)[C@H](CCC(N)=O)NC(=O)C(C)(C)NC(=O)[C@@H](N)Cc1c[nH]cn1)[C@@H](C)O)[C@@H](C)O)C(=O)N[C@@H](CCC(=O)O)C(=O)N[C@@H](CCCCN)C(=O)N[C@@H](CCC(N)=O)C(=O)N[C@@H](CCCNC(=N)N)C(=O)N[C@@H](CCC(N)=O)C(=O)NC(C)(C)C(=O)N[C@@H](CCC(=O)O)C(=O)N[C@@H](Cc1ccccc1)C(=O)N[C@H](C(=O)N[C@@H](CCC(=O)O)C(=O)N[C@@H](Cc1c[nH]c2ccccc12)C(=O)N[C@@H](CC(C)C)C(=O)N[C@@H](CCCCN)C(=O)N[C@@H](C)C(=O)NCC(=O)NCC(=O)N1CCC[C@H]1C(=O)N1CCC[C@H]1C(=O)N[C@@H](CO)C(=O)NC(C)(C)C(=O)N[C@@H](CCCCN)C(=O)N1CCC[C@H]1C(=O)N1CCC[C@H]1C(=O)N1CCC[C@H]1C(=O)N[C@@H](CCCCN)C(N)=O)[C@@H](C)CC)C(=O)O [SEQ ID NO: 15, H-Aib-Q-G-T-F-T-S-D-L-S-K-L-K[gGlu-Stea]-E-K-Q-R-Q-Aib-E-F-I-E-W-L-K-A-G-G-P-P-S-Aib-K-P-P-P-K-NH2] (H-H[Aib]QGTFTSDLSKLK([γGlu-Stearoyl])EKQRQ[Aib]EFIEWLKAGGPPS[Aib]KPPPK-NH2) | −0.2 | 2.7 | 2.6 | > 8900 | 5.6 | 0.0057 | – | – |
| CCCCCCCCCCCCCCCC(=O)N[C@@H](CCC(=O)NCCCC[C@H](NC(=O)[C@H](CC(C)C)NC(=O)[C@H](CCCCN)NC(=O)[C@H](CO)NC(=O)[C@H](CC(C)C)NC(=O)[C@H](CC(=O)O)NC(=O)[C@H](CO)NC(=O)[C@@H](NC(=O)[C@H](Cc1ccccc1)NC(=O)[C@@H](NC(=O)CNC(=O)[C@H](CCC(N)=O)NC(=O)C(C)(C)NC(=O)[C@@H](N)Cc1c[nH]cn1)[C@@H](C)O)[C@@H](C)O)C(=O)N[C@@H](CCC(=O)O)C(=O)N[C@@H](CCCCN)C(=O)N[C@@H](CCC(N)=O)C(=O)N[C@@H](CCCNC(=N)N)C(=O)N[C@@H](CCC(N)=O)C(=O)NC(C)(C)C(=O)N[C@@H](CCC(=O)O)C(=O)N[C@@H](Cc1ccccc1)C(=O)N[C@H](C(=O)N[C@@H](CCC(=O)O)C(=O)N[C@@H](Cc1c[nH]c2ccccc12)C(=O)N[C@@H](CC(C)C)C(=O)N[C@@H](CCCCN)C(=O)N[C@@H](C)C(=O)NCC(=O)NCC(=O)N1CCC[C@H]1C(=O)N1CCC[C@H]1C(=O)N[C@@H](CO)C(=O)NC(C)(C)C(=O)N[C@@H](CCCCN)C(=O)N1CCC[C@H]1C(=O)N1CCC[C@H]1C(=O)N1CCC[C@H]1C(=O)N[C@@H](CCCCN)C(N)=O)[C@@H](C)CC)C(=O)O [SEQ ID NO: 14, H-Aib-Q-G-T-F-T-S-D-L-S-K-L-K[gGlu-Palm]-E-K-Q-R-Q-Aib-E-F-I-E-W-L-K-A-G-G-P-P-S-Aib-K-P-P-P-K-NH2] | −0.2 | 2.7 | 2.4 | > 9300 | 5.5 | 0.0057 | – | – |
| CCCCCCCCCCCCCCCC(=O)NCCOCCOCC(=O)N[C@@H](CCC(=O)N[C@@H](CCC(=O)NCCCC[C@H](NC(=O)[C@H](CC(C)C)NC(=O)[C@H](CCCCN)NC(=O)[C@H](CO)NC(=O)[C@H](CC(C)C)NC(=O)[C@H](CC(=O)O)NC(=O)[C@H](CO)NC(=O)[C@@H](NC(=O)[C@H](Cc1ccccc1)NC(=O)[C@@H](NC(=O)CNC(=O)[C@H](CCC(N)=O)NC(=O)C(C)(C)NC(=O)[C@@H](N)Cc1c[nH]cn1)[C@@H](C)O)[C@@H](C)O)C(=O)N[C@@H](CCC(=O)O)C(=O)N[C@@H](CCCCN)C(=O)N[C@@H](CCC(N)=O)C(=O)N[C@@H](CCCNC(=N)N)C(=O)N[C@@H](CCC(N)=O)C(=O)NC(C)(C)C(=O)N[C@@H](CCC(=O)O)C(=O)N[C@@H](Cc1ccccc1)C(=O)N[C@H](C(=O)N[C@@H](CCC(=O)O)C(=O)N[C@@H](Cc1c[nH]c2ccccc12)C(=O)N[C@@H](CC(C)C)C(=O)N[C@@H](CCCCN)C(=O)N[C@@H](C)C(=O)N[C@H](C)C(=O)NCC(=O)N[C@@H](Cc1c[nH]cn1)C(=O)N1CCC[C@H]1C(=O)N[C@@H](CO)C(=O)NC(C)(C)C(=O)N[C@@H](CCCCN)C(=O)N1CCC[C@H]1C(=O)N1CCC[C@H]1C(=O)N1CCC[C@H]1C(=O)N[C@@H](CCCCN)C(N)=O)[C@@H](C)CC)C(=O)O)C(=O)O [SEQ ID NO: 17, H-Aib-Q-G-T-F-T-S-D-L-S-K-L-K[gGlu-gGlu-AEEA-Palm]-E-K-Q-R-Q-Aib-E-F-I-E-W-L-K-A-dAla-G-H-P-S-Aib-K-P-P-P-K-NH2] (H-H[Aib]QGTFTSDLSKLK([γGlu-γGlu-AEEA-Palmitoyl])EKQRQ[Aib]EFIEWLKA[dA]GHPS[Aib]KPPPK-NH2) | −0.5 | 2.9 | 2.4 | > 9200 | 6.4 | – | 0.022 | >45 |
| CCCCCCCCCCCCCCCC(=O)N[C@@H](CCC(=O)N[C@@H](CCC(=O)NCCCC[C@H](NC(=O)[C@H](CC(C)C)NC(=O)[C@H](CCCCN)NC(=O)[C@H](CO)NC(=O)[C@H](CC(C)C)NC(=O)[C@H](CC(=O)O)NC(=O)[C@H](CO)NC(=O)[C@@H](NC(=O)[C@H](Cc1ccccc1)NC(=O)[C@@H](NC(=O)CNC(=O)[C@H](CCC(N)=O)NC(=O)C(C)(C)NC(=O)[C@@H](N)Cc1c[nH]cn1)[C@@H](C)O)[C@@H](C)O)C(=O)N[C@@H](CCC(=O)O)C(=O)N[C@@H](CCCCN)C(=O)N[C@@H](CCC(N)=O)C(=O)N[C@@H](CCCNC(=N)N)C(=O)N[C@@H](CCC(N)=O)C(=O)NC(C)(C)C(=O)N[C@@H](CCC(=O)O)C(=O)N[C@@H](Cc1ccccc1)C(=O)N[C@H](C(=O)N[C@@H](CCC(=O)O)C(=O)N[C@@H](Cc1c[nH]c2ccccc12)C(=O)N[C@@H](CC(C)C)C(=O)N[C@@H](CCCCN)C(=O)N[C@@H](C)C(=O)NCC(=O)NCC(=O)N[C@@H](Cc1c[nH]cn1)C(=O)N1CCC[C@H]1C(=O)N[C@@H](CO)C(=O)NC(C)(C)C(=O)N[C@@H](CCCCN)C(=O)N1CCC[C@H]1C(=O)N1CCC[C@H]1C(=O)N1CCC[C@H]1C(=O)N[C@@H](CCCCN)C(N)=O)[C@@H](C)CC)C(=O)O)C(=O)O [SEQ ID NO: 12, H-Aib-Q-G-T-F-T-S-D-L-S-K-L-K[gGlu-gGlu-Palm]-E-K-Q-R-Q-Aib-E-F-I-E-W-L-K-A-G-G-H-P-S-Aib-K-P-P-P-K-NH2] | – | – | – | > 9300 | 5.4 | – | 0.022 | >45 |

— patent US10519211B2, “Compounds as peptidic GLP1/glucagon/GIP receptor agonists” (SANOFI, priority 2016, dated 2019)
